# Patent US7071220B2, “N-substituted benzothiophenesulfonamide derivatives” (Toa Eiyo Ltd., priority 2000, dated 2006)
# Changes are numbered by the printed parent chain. Counter-ions that a name gives are not always drawn. Like-named read-outs stand apart in the source and are kept apart here.
# What was measured:
# Simian chymase = molecular target: T1, Simian chymase (Macaca mulatta, UniProt F6SAJ2); assay: Measurement of inhibitory activity of simian chymase (Ang I substrate, His-Leu/OPT fluorescence); assay type: biochemical, rhesus monkey; conditions: chymase from heart of rhesus monkey; 120 minutes at 37° C.; read-out: Simian chymase IC50 value
# T1 sequence (F6SAJ2 22-247 limits assumed): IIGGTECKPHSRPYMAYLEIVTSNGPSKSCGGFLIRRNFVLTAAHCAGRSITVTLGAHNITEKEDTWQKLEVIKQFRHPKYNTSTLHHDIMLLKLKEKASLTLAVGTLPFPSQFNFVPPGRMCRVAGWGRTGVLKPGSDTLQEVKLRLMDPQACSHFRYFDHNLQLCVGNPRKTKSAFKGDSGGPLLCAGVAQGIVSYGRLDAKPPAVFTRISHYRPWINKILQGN
# Protocol: (§5) That is, the activity was measured by reacting free His-Leu formed together with Ang II with o-phthalaldehyde (hereinafter, abbreviated as OPT) to prepare a fluorescent derivative and determining the amount quantitatively by means of a fluorophotometer.
# (§6) First, 3.6 μmol of each test compound was weighed in a test tube and was dissolved into 3 mL of DMSO. The DMSO solution was diluted 1000-fold with 20 mmol/L Tris-hydrochloric acid buffer solution (pH 8.0) containing 0.01% Triton X-100 and 0.5 mol/L potassium chloride to prepare 1.2×10^−6 mol/L solution, which was successively diluted with the buffer solution to prepare test sample solutions having concentrations of 1.2×10^−6 mol/L to 1.2×10^−9 mol/L. To 500 μL of the test sample solution of each concentration or buffer solution was added 50 μL of an enzyme solution, followed by 10 minutes of pre-incubation at 37° C. Then, 50 μL of 0.1 mmol/L Ang I solution was added to initiate a reaction. Human angiotensin I (manufactured by SIGMA) was employed as Ang I. The enzyme solution to be used for the reaction was adjusted so as to hydrolyze about 60% of substrate under the conditions, and the reaction wherein a buffer solution containing no enzyme was carried out as a blind test. […] Thereafter, the reaction mixture was centrifuged at 4° C. at 3,000 rpm for 10 minutes and 2 mL of 2 mol/L sodium hydroxide and 1 mL of methanol were added to 1 mL of the resulting supernatant. […] The measurement was repeated twice for each sample and blind test. The fluorescence intensity obtained by subtracting the average value at blind test from the average value thereof was determined as chymase activity.
# (§7) In this regard, an enzymatic reaction using a buffer solution instead of the test sample solution was carried out as a control, and inhibitory ratio of chymase activity was determined as percentage by dividing the difference of subtraction of the activity at the addition of the test compound from the chymase activity at the control by the chymase activity at the control.
# Chymotrypsin = molecular target: T2, Chymotrypsin (Bos taurus, UniProt P00766); assay: Measurement of chymotrypsin inhibitory activity (Suc-Ala-Ala-Pro-Phe-pNA); assay type: biochemical; conditions: Chymotrypsin Type I-S from bovine pancreas; 30 minutes at 37° C.
# T2 construct: Chymotrypsin Type I-S derived from bovine pancreas; purchased SIGMA Type I-S; host or cells: bovine pancreas
# Protocol: (§1) Measurement of Cathepsin G Inhibitory Activity and Chymotrypsin Inhibitory Activity
# (§2) Each activity of cathepsin G or chymotrypsin was measured by determining the amount of free p-nitroaniline quantitatively using a synthetic substrate that is colorless and yields colored product upon hydrolysis, by means of a spectrophotometer. Chymotrypsin Type I-S derived from bovine pancreas was purchased from SIGMA. As cathepsin G, the product of Elastin Products Company, Inc. derived from human purulent sputum was used. Suc-Ala-Ala-Pro-Phe-pNA (manufactured by SIGMA) was used as the synthetic substrate. An inhibitory effect of a compound on each enzyme was determined by the following method.
# (§3) Each test compound (5 μmol) was weighed in a test tube and dissolved into 2 mL of DMSO. […] Then, 200 μL of 1 mmol/L substrate solution was added to initiate en enzymatic reaction under a temperature of 37° C.
# (§4) Based on each inhibitory ratio, IC50 value was calculated.
# Cathepsin G = molecular target: T3, Cathepsin G (Homo sapiens, UniProt P08311); assay: Measurement of cathepsin G inhibitory activity (Suc-Ala-Ala-Pro-Phe-pNA); assay type: biochemical; conditions: cathepsin G from human purulent sputum; 60 minutes at 37° C.
# T3 construct: the product of Elastin Products Company, Inc. derived from human purulent sputum was used; purchased Elastin Products Company, Inc; host or cells: human purulent sputum
# T3 sequence (P08311 21-244): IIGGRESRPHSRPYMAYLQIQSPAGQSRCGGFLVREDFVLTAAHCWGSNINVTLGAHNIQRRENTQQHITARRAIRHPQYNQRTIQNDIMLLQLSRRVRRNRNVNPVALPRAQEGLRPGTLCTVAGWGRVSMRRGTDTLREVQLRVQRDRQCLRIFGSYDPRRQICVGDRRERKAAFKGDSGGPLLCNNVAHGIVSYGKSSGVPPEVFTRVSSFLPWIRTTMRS
# Protocol: as §1, §2, §3, §4
# Stability in rat plasma = assay type: in vitro ADME; conditions: 10 μg/mL, 37° C., 60 minutes, HPLC
# Protocol: Stability of the compounds of the invention in rat plasma was investigated.
# Male SD rats (7-week-old) were anesthetized with ether under over-night fasting conditions and, after an abdominal part was incised, blood was collected from aorta abdominalis using a heparinized disposable plastic syringe. The blood was centrifuged under cooling to collect a supernatant plasma. The collected plasma was stored under freezing at −30° C. and was melted before use. After a test compound was dissolved in DMSO, the solution was added to 200 μL of the plasma so as to be 10 μg/mL, followed by incubation at 37° C. After 60 minutes, the mixture was acidified by adding 200 μL of 0.1 mol/L hydrochloric acid, and then extracted twice with 2 mL of ethyl acetate. The resulting organic layer was evaporated to dryness under a nitrogen gas flow and the residue was dissolved into 200 μL of acetonitrile to prepare a sample solution. On the other hand, the test compound was dissolved into 1% acetonitrile solution of DMSO so as to be 10 μg/mL as a control solution. The sample solution and control solution was investigated by high performance liquid chromatography (hereinafter, abbreviated as HPLC). Residual ratio (%) was determined as percentage by dividing the peak area of the sample solution by the peak area of the control solution.
# Column: Waters Nova Pack C18 (inner diameter: 3.9 mm, length: 150 mm)
# Mobile phase A: acetonitrile/water=10/90
# Mobile phase B: acetonitrile/methanol=50/50
# Eluent: Mobile phase A-mobile phase B (100/0 to 0/100, linear gradient, 50 minutes)
# Amount of injection: 50 μL
# Human chymase = molecular target: T4, Human chymase (Homo sapiens, UniProt P23946); assay: Measurement of inhibitory activity of human chymase (Ang I substrate, His-Leu/OPT fluorescence)
# T4 sequence (P23946 22-247): T1 sequence (F6SAJ2 22-247 limits assumed) with S29F, K63E, Y159D, L201S, K221Q, G225A
# Protocol: as §5, §6, §7
# [1] = read-out: Human cymase IC50 value, human chymase from silkworms infected with baculovirus, 120 minutes at 37° C.
Structure (SMILES),IC50 (Simian chymase) [nM],IC50 (Chymotrypsin) [nM],IC50 (Cathepsin G) [nM],IC50 (Human chymase) [nM],further results
"COC(=O)c1ccc(NS(=O)(=O)c2sc3ccc(Cl)cc3c2C)c(S(C)(=O)=O)c1 [Compound 1, Methyl 4-(5-chloro-3-methylbenzo[b]thiophene-2-sulfonylamino)-3-methanesulfonylbenzoate]",50,> 10000,> 10000,–,Residual ratio in rat plasma (Stability in rat plasma): 93.9%; IC50 (Human chymase; [1]): 203 nM
"Cc1c(S(=O)(=O)Nc2ccc(CO)cc2S(C)(=O)=O)sc2ccc(Cl)cc12 [Compound 13, 5-chloro-N-(4-hydroxymethyl-2-methanesulfonylphenyl)-3-methylbenzo[b]thiophene-2-sulfonamide]",271,–,–,–,–
Cc1c(S(=O)(=O)Nc2ccc(-c3nc(CO)co3)cc2S(C)(=O)=O)sc2ccc(F)cc12 [Compound 66],–,–,–,39,melting point: 242 to 244 °C
"CC(=O)c1ccc(NS(=O)(=O)c2sc3ccc(F)cc3c2C)c(S(C)(=O)=O)c1 [Compound 19, N-(4-acetyl-2-methanesulfonylphenyl)-5-fluoro-3-methylbenzo[b]thiophene-2-sulfonamide]",20,–,–,–,Residual ratio in rat plasma (Stability in rat plasma): 96.2%; IC50 (Human chymase; [1]): 82 nM
"COc1oc(-c2ccc(NS(=O)(=O)c3sc4ccc(F)cc4c3C)c(S(C)(=O)=O)c2)nc1C [Compound 56, 5-fluoro-N-[2-methanesulfonyl-4-(5-methoxy-4-methyloxazol-2-yl)phenyl]-3-methylbenzo[b]thiophene-2-sulfonamide]",–,–,–,102,–
"Cc1c(S(=O)(=O)Nc2ccc(-c3ncco3)cc2S(C)(=O)=O)sc2ccc(F)cc12 [Compound 73, 5-fluoro-N-[2-methanesulfonyl-4-(oxazol-2-yl)phenyl]-3-methylbenzo[b]thiophene-2-sulfonamide]",–,–,–,55,–
"CCOC(=O)c1ccc(NS(=O)(=O)c2sc3ccc(Cl)cc3c2C)c(S(C)(=O)=O)c1 [Compound 2, Ethyl 4-(5-chloro-3-methylbenzo[b]thiophene-2-sulfonylamino)-3-methanesulfonylbenzoate]",42,–,–,–,–
"COC(=O)c1coc(-c2ccc(NS(=O)(=O)c3sc4ccc(Cl)cc4c3C)c(S(C)(=O)=O)c2)n1 [Compound 25, methyl 2-[4-(5-chloro-3-methylbenzo[b]thiophene-2-sulfonylamino)-3-methanesulfonylphenyl]oxazole-4-carboxylate]",75,–,–,–,melting point: 296 to 298 °C
Cc1c(S(=O)(=O)Nc2ccc(-c3cnco3)cc2S(C)(=O)=O)sc2ccc(F)cc12 [Compound 48],6,> 10000,> 10000,45,melting point: 199 to 201 °C
Cc1coc(-c2ccc(NS(=O)(=O)c3sc4ccc(F)cc4c3C)c(S(C)(=O)=O)c2)n1 [Compound 68],–,–,–,101,melting point: 206 to 208 °C
"COC(=O)c1cc(S(C)(=O)=O)c(NS(=O)(=O)c2sc3ccc(Cl)cc3c2C)cc1C [Compound 5, Methyl 4-(5-chloro-3-methylbenzo[b]thiophene-2-sulfonylamino)-5-methanesulfonyl-2-methylbenzoate]",150,> 1000,> 1000,–,Residual ratio in rat plasma (Stability in rat plasma): 85.2%
"Cc1c(S(=O)(=O)Nc2ccc(-c3nc(CO)cs3)cc2S(C)(=O)=O)sc2ccc(F)cc12 [Compound 63, 5-fluoro-N-[4-(4-hydroxymethylthiazol-2-yl)-2-methanesulfonylphenyl]-3-methylbenzo[b]thiophene-2-sulfonamide]",–,–,–,20,–
Cc1c(S(=O)(=O)Nc2ccc(C(=O)NCC(=O)O)cc2S(C)(=O)=O)sc2ccc(Cl)cc12 (as salt: sodium) [Compound 52],–,–,–,–,melting point: 290 to 292 °C
Cc1c(S(=O)(=O)Nc2ccc(C(=O)NCC(=O)O)cc2S(C)(=O)=O)sc2ccc(Cl)cc12 [Compound 52],157,–,–,–,–
"Cc1c(S(=O)(=O)Nc2ccc(-c3nc(C(=O)O)co3)cc2S(C)(=O)=O)sc2ccc(Cl)cc12 [Compound 26, 2-[4-(5-chloro-3-methylbenzo[b]thiophene-2-sulfonylamino)-3-methanesulfonylphenyl]oxazole-4-carboxylic acid]",10,> 10000,> 10000,150,Residual ratio in rat plasma (Stability in rat plasma): 100%
"CCOC(=O)c1ccc(NS(=O)(=O)c2sc3ccc(Cl)cc3c2C)cc1 [Compound 14, ethyl 4-(5-chloro-3-methylbenzo[b]thiophene-2-sulfonylamino)benzoate]",278,> 10000,> 10000,–,Residual ratio in rat plasma (Stability in rat plasma): 79.2%
"CCS(=O)(=O)c1cc(C(=O)OC)ccc1NS(=O)(=O)c1sc2ccc(Cl)cc2c1C [Compound 4, Methyl 4-(5-chloro-3-methylbenzo[b]thiophene-2-sulfonylamino)-3-ethanesulfonylbenzoate]",111,> 10000,> 10000,–,Residual ratio in rat plasma (Stability in rat plasma): 93.5%
"Cc1c(S(=O)(=O)Nc2ccc(C(=O)OC(C)(C)C)cc2S(C)(=O)=O)sc2ccc(Cl)cc12 [Compound 3, tert-butyl 4-(5-chloro-3-methylbenzo[b]thiophene-2-sulfonylamino)-3-methanesulfonylbenzoate]",178,–,–,–,–
"COC(=O)c1ccc(NS(=O)(=O)c2sc3ccc(Cl)cc3c2C)c([N+](=O)[O-])c1 [Compound 8, Methyl 4-(5-chloro-3-methylbenzo[b]thiophene-2-sulfonylamino)-3-nitrobenzoate]",–,> 10000,> 10000,–,–
"CS/C(=C\c1ccc(NS(=O)(=O)c2sc3ccc(F)cc3c2C)c(S(C)(=O)=O)c1)[S+](C)[O-] (stereo not shown) [Compound 72, 5-fluoro-N-[2-methanesulfonyl-4-((E)-2-methanesulfinyl-2-methylsulfanylvinyl)phenyl]-3-methylbenzo[b]thiophene-2-sulfonamide]",–,–,–,20,–
"CC(C)C[C@H](NC(=O)[C@@H](NC(=O)N[C@@H](Cc1ccccc1)C(=O)O)[C@@H]1CCN=C(N)N1)C(=O)N[C@H](C=O)Cc1ccccc1 [Chymostatin, reference compound]",–,–,5.99,–,–
"COC(=O)c1ccc(NS(=O)(=O)c2sc3ccccc3c2C)c(S(C)(=O)=O)c1 [Compound 20, methyl 4-(3-methylbenzo[b]thiophene-2-sulfonylamino)-3-methanesulfonylbenzoate]",39,–,–,–,IC50 (Human chymase; [1]): 305 nM
"CC(=O)c1ccc(NS(=O)(=O)c2sc3ccc(Cl)cc3c2C)c(S(C)(=O)=O)c1 [Compound 11, N-(4-acetyl-2-methanesulfonylphenyl)-5-chloro-3-methylbenzo[b]thiophene-2-sulfonamide]",100,–,–,271,–
